The molecules below were run on POROL (common purslane) (assay: Pre-emergence herbicidal activity, warm season). Conditions: GR80 = lowest tested rate (300, 100, 30, 10 g/ha) with 80% or greater inhibition; approx. 14 days after treating; 30/21° C.
Format: in vivo, Portulaca oleracea
Procedure, shortened: (§1)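 GR80 values derive from percent inhibition relative to untreated plants, read roughly 14 days after sowing and pre-emergence soil-surface treatment (compound in 50:50 acetone/water; rates typically 10, 30, 100, 300 g/ha). Warm-season weeds grew at 30/21° C day/night, cool-season ones at 18/13° C; an asterisk marks activity without reaching 80% at the highest rate.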

SMILES	Pre-emergence activity (GR80) POROL [g/ha]
C=C(CC(F)(F)S(=O)(=O)c1ncn(C(=O)N(CC)CC)n1)C[Si](C)(C)C [Example 20]	300

Each molecule was assayed on PANMI (wild proso millet) (assay: Pre-emergence herbicidal activity, warm season). Conditions: GR80 = lowest tested rate (300, 100, 30, 10 g/ha) with 80% or greater inhibition; approx. 14 days after treating; 30/21° C.
Format: in vivo, Panicum miliaceum
Procedure, shortened: (§2)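 Activity is expressed as the rate giving 80% inhibition, with 300, 100, 30 and 10 g/ha typically tested. An asterisk marks activity short of 80% at the top rate. Warm-season grasses were held at 30/21 °C; cool-season blackgrass and wild buckwheat at 18/13 °C; scoring at about 14 days.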

SMILES	Pre-emergence activity (GR80) PANMI [g/ha]
C=C(CC(F)(F)S(=O)(=O)c1ncn(C(=O)N(CC)CC)n1)C[Si](C)(C)C [Example 20]	100

What follows are molecules tested on BRAPP (broadleaf signalgrass) (assay: Pre-emergence herbicidal activity, warm season). Conditions: GR80 = lowest tested rate (300, 100, 30, 10 g/ha) with 80% or greater inhibition; approx. 14 days after treating; 30/21° C.
Format: in vivo, Brachiaria platyphylla
Procedure, shortened: as §1

SMILES	Pre-emergence activity (GR80) BRAPP [g/ha]
C=C(CC(F)(F)S(=O)(=O)c1ncn(C(=O)N(CC)CC)n1)C[Si](C)(C)C [Example 20]	300

These molecules were tested on DIGSA (large crabgrass) (assay: Pre-emergence herbicidal activity, warm season). Conditions: GR80 = lowest tested rate (300, 100, 30, 10 g/ha) with 80% or greater inhibition; approx. 14 days after treating; 30/21° C.
Format: in vivo, Digitaria sanguinalis
Procedure, shortened: as §2

SMILES	Pre-emergence activity (GR80) DIGSA [g/ha]
C=C(CC(F)(F)S(=O)(=O)c1ncn(C(=O)N(CC)CC)n1)C[Si](C)(C)C [Example 20]	100

Each molecule was assayed on SETVI (green foxtail) (assay: Pre-emergence herbicidal activity, cool season). Conditions: GR80 = lowest tested rate (300, 100, 30, 10 g/ha) with 80% or greater inhibition; approx. 14 days after treating; 18/13° C.
Format: in vivo, Setaria viridis
Procedure, shortened: as §1

SMILES	Pre-emergence activity (GR80) SETVI [g/ha]
C=C(CC(F)(F)S(=O)(=O)c1ncn(C(=O)N(CC)CC)n1)C[Si](C)(C)C [Example 20]	100

The molecules below were run on AGSST (creeping bentgrass) (assay: Pre-emergence herbicidal activity, cool season). Conditions: GR80 = lowest tested rate (300, 100, 30, 10 g/ha) with 80% or greater inhibition; approx. 14 days after treating; 18/13° C.
Format: in vivo, Agrostis stolonifera
Procedure, shortened: as §1

SMILES	Pre-emergence activity (GR80) AGSST [g/ha]
C=C(CC(F)(F)S(=O)(=O)c1ncn(C(=O)N(CC)CC)n1)C[Si](C)(C)C [Example 20]	300

What follows are molecules tested on DIGSA (large crabgrass) (assay: Pre-plant incorporated (PPI) herbicidal activity, warm season). Conditions: PPI application, 10 g/ha.
Format: in vivo, Digitaria sanguinalis
Experimental: (§3) In another set of tests, the pre-plant incorporated (PPI) activity of compounds of this invention was evaluated on the same species as for the pre-emergence tests described above. In the PPI tests the following procedure, designed to simulate PPI application, was used.
(§4) A pre-prepared topsoil mixture (described above) was placed in a pot and compacted to a depth of 1.0 to 1.25 cm from the top of the pot. Seeds of each of several monocotyledonous and dicotyledonous annual plant species were placed on top of the soil. A sufficient quantity of soil to cover the seeds and level fill the pot was weighed into an open container. A known amount of the test compound was dissolved or suspended in an organic solvent and applied by spraying to this cover soil. The cover soil was thoroughly mixed to distribute the test compound throughout the cover soil, and was then applied as a cover layer over the seeds. Untreated soil was used as a cover layer for control pots. After treatment the plants were placed in a greenhouse where they received 0.64 cm of overhead irrigation. All subsequent watering consisted of a light overhead mist and/or subirrigation as needed for germination and growth. Tables 9 and 10 below relate to warm season plant species which were placed after pre-emergence treatment in a greenhouse with a 30/21° C. day/night temperature regime. Tables 11 and 12 below relates to cool season plant species placed after pre-emergence treatment in a greenhouse or growth chamber with an 18/13° C. day/night temperature regime. Only the compounds of Examples 1, 6, 8, 11, 13 and 15-20 were included in PPI tests.
(§5) Approximately 14 days after planting and treating, the plants were observed and herbicidal efficacy recorded as percent inhibition by comparison with untreated plants.

SMILES	Percent inhibition DIGSA [%]
C=C(CC(F)(F)S(=O)(=O)c1ncn(C(=O)N(CC)CC)n1)C[Si](C)(C)C [Example 20]	0

Same assay, conditions: PPI application, 30 g/ha

SMILES	Percent inhibition DIGSA [%]
C=C(CC(F)(F)S(=O)(=O)c1ncn(C(=O)N(CC)CC)n1)C[Si](C)(C)C [Example 20]	80

Same assay, conditions: PPI application, 100 g/ha

SMILES	Percent inhibition DIGSA [%]
C=C(CC(F)(F)S(=O)(=O)c1ncn(C(=O)N(CC)CC)n1)C[Si](C)(C)C [Example 20]	90

Same assay, conditions: PPI application, 300 g/ha

SMILES	Percent inhibition DIGSA [%]
C=C(CC(F)(F)S(=O)(=O)c1ncn(C(=O)N(CC)CC)n1)C[Si](C)(C)C [Example 20]	100

Same assay, conditions: PPI application, 900 g/ha

SMILES	Percent inhibition DIGSA [%]
C=C(CC(F)(F)S(=O)(=O)c1ncn(C(=O)N(CC)CC)n1)C[Si](C)(C)C [Example 20]	99

Same assay, conditions: pre-plant incorporated; lowest tested rate with 80% or greater inhibition; about 14 days

SMILES	PPI activity GR80, DIGSA [g/ha]
C=C(CC(F)(F)S(=O)(=O)c1ncn(C(=O)N(CC)CC)n1)C[Si](C)(C)C [Example 20]	100

These molecules were tested on GALAP (catchweed bedstraw) (assay: Pre-plant incorporated (PPI) herbicidal activity, cool season). Conditions: pre-plant incorporated; lowest tested rate with 80% or greater inhibition; about 14 days.
Format: in vivo, Galium aparine
Experimental: as §3, §4, §5

SMILES	PPI activity GR80, GALAP
C=C(CC(F)(F)S(=O)(=O)c1ncn(C(=O)N(CC)CC)n1)C[Si](C)(C)C [Example 20]	[empty]

Same assay, conditions: weed, PPI application, 10 g/ha

SMILES	Percent inhibition GALAP [%]
C=C(CC(F)(F)S(=O)(=O)c1ncn(C(=O)N(CC)CC)n1)C[Si](C)(C)C [Example 20]	0

Same assay, conditions: weed, PPI application, 30 g/ha

SMILES	Percent inhibition GALAP [%]
C=C(CC(F)(F)S(=O)(=O)c1ncn(C(=O)N(CC)CC)n1)C[Si](C)(C)C [Example 20]	0

Same assay, conditions: weed, PPI application, 100 g/ha

SMILES	Percent inhibition GALAP [%]
C=C(CC(F)(F)S(=O)(=O)c1ncn(C(=O)N(CC)CC)n1)C[Si](C)(C)C [Example 20]	50

Same assay, conditions: weed, PPI application, 300 g/ha

SMILES	Percent inhibition GALAP [%]
C=C(CC(F)(F)S(=O)(=O)c1ncn(C(=O)N(CC)CC)n1)C[Si](C)(C)C [Example 20]	90

Same assay, conditions: weed, PPI application, 900 g/ha

SMILES	Percent inhibition GALAP [%]
C=C(CC(F)(F)S(=O)(=O)c1ncn(C(=O)N(CC)CC)n1)C[Si](C)(C)C [Example 20]	100

These molecules were tested on LOLMG (annual ryegrass) in the same assay as above. Conditions: pre-plant incorporated; lowest tested rate with 80% or greater inhibition; about 14 days.
Format: in vivo, Lolium multiflorum
Experimental: as §3, §4, §5

SMILES	PPI activity GR80, LOLMG
C=C(CC(F)(F)S(=O)(=O)c1ncn(C(=O)N(CC)CC)n1)C[Si](C)(C)C [Example 20]	* (activity observed, at least at highest rate, but <80% inhibition)

Same assay, conditions: weed, PPI application, 10 g/ha

SMILES	Percent inhibition LOLMG [%]
C=C(CC(F)(F)S(=O)(=O)c1ncn(C(=O)N(CC)CC)n1)C[Si](C)(C)C [Example 20]	0

Same assay, conditions: weed, PPI application, 30 g/ha

SMILES	Percent inhibition LOLMG [%]
C=C(CC(F)(F)S(=O)(=O)c1ncn(C(=O)N(CC)CC)n1)C[Si](C)(C)C [Example 20]	30

Same assay, conditions: weed, PPI application, 100 g/ha

SMILES	Percent inhibition LOLMG [%]
C=C(CC(F)(F)S(=O)(=O)c1ncn(C(=O)N(CC)CC)n1)C[Si](C)(C)C [Example 20]	60

Same assay, conditions: weed, PPI application, 300 g/ha

SMILES	Percent inhibition LOLMG [%]
C=C(CC(F)(F)S(=O)(=O)c1ncn(C(=O)N(CC)CC)n1)C[Si](C)(C)C [Example 20]	85

Same assay, conditions: weed, PPI application, 900 g/ha

SMILES	Percent inhibition LOLMG [%]
C=C(CC(F)(F)S(=O)(=O)c1ncn(C(=O)N(CC)CC)n1)C[Si](C)(C)C [Example 20]	75

The molecules below were run on AEGCY (jointed goatgrass) in the same assay as above. Conditions: pre-plant incorporated; lowest tested rate with 80% or greater inhibition; about 14 days.
Format: in vivo, Aegilops cylindrica
Experimental: as §3, §4, §5

SMILES	PPI activity GR80, AEGCY
C=C(CC(F)(F)S(=O)(=O)c1ncn(C(=O)N(CC)CC)n1)C[Si](C)(C)C [Example 20]	* (activity observed, at least at highest rate, but <80% inhibition)

Same assay, conditions: weed, PPI application, 10 g/ha

SMILES	Percent inhibition AEGCY [%]
C=C(CC(F)(F)S(=O)(=O)c1ncn(C(=O)N(CC)CC)n1)C[Si](C)(C)C [Example 20]	0

Same assay, conditions: weed, PPI application, 30 g/ha

SMILES	Percent inhibition AEGCY [%]
C=C(CC(F)(F)S(=O)(=O)c1ncn(C(=O)N(CC)CC)n1)C[Si](C)(C)C [Example 20]	0

Same assay, conditions: weed, PPI application, 100 g/ha

SMILES	Percent inhibition AEGCY [%]
C=C(CC(F)(F)S(=O)(=O)c1ncn(C(=O)N(CC)CC)n1)C[Si](C)(C)C [Example 20]	0

Same assay, conditions: weed, PPI application, 300 g/ha

SMILES	Percent inhibition AEGCY [%]
C=C(CC(F)(F)S(=O)(=O)c1ncn(C(=O)N(CC)CC)n1)C[Si](C)(C)C [Example 20]	0

Same assay, conditions: weed, PPI application, 900 g/ha

SMILES	Percent inhibition AEGCY [%]
C=C(CC(F)(F)S(=O)(=O)c1ncn(C(=O)N(CC)CC)n1)C[Si](C)(C)C [Example 20]	0

What follows are molecules tested on AGRRE (quackgrass (seedling)) in the same assay as above. Conditions: pre-plant incorporated; lowest tested rate with 80% or greater inhibition; about 14 days.
Format: in vivo, Elymus repens
Experimental: as §3, §4, §5

SMILES	PPI activity GR80, AGRRE [g/ha]
C=C(CC(F)(F)S(=O)(=O)c1ncn(C(=O)N(CC)CC)n1)C[Si](C)(C)C [Example 20]	300

Same assay, conditions: weed, PPI application, 10 g/ha

SMILES	Percent inhibition AGRRE [%]
C=C(CC(F)(F)S(=O)(=O)c1ncn(C(=O)N(CC)CC)n1)C[Si](C)(C)C [Example 20]	0

Same assay, conditions: weed, PPI application, 30 g/ha

SMILES	Percent inhibition AGRRE [%]
C=C(CC(F)(F)S(=O)(=O)c1ncn(C(=O)N(CC)CC)n1)C[Si](C)(C)C [Example 20]	10

Same assay, conditions: weed, PPI application, 100 g/ha

SMILES	Percent inhibition AGRRE [%]
C=C(CC(F)(F)S(=O)(=O)c1ncn(C(=O)N(CC)CC)n1)C[Si](C)(C)C [Example 20]	65

Same assay, conditions: weed, PPI application, 300 g/ha

SMILES	Percent inhibition AGRRE [%]
C=C(CC(F)(F)S(=O)(=O)c1ncn(C(=O)N(CC)CC)n1)C[Si](C)(C)C [Example 20]	40

Same assay, conditions: weed, PPI application, 900 g/ha

SMILES	Percent inhibition AGRRE [%]
C=C(CC(F)(F)S(=O)(=O)c1ncn(C(=O)N(CC)CC)n1)C[Si](C)(C)C [Example 20]	80

The molecules below were run on POAAN (annual bluegrass) in the same assay as above. Conditions: weed, PPI application, 10 g/ha.
Format: in vivo, Poa annua
Experimental: as §3, §4, §5

SMILES	Percent inhibition POAAN [%]
C=C(CC(F)(F)S(=O)(=O)c1ncn(C(=O)N(CC)CC)n1)C[Si](C)(C)C [Example 20]	0

Same assay, conditions: weed, PPI application, 30 g/ha

SMILES	Percent inhibition POAAN [%]
C=C(CC(F)(F)S(=O)(=O)c1ncn(C(=O)N(CC)CC)n1)C[Si](C)(C)C [Example 20]	30

Same assay, conditions: weed, PPI application, 100 g/ha

SMILES	Percent inhibition POAAN [%]
C=C(CC(F)(F)S(=O)(=O)c1ncn(C(=O)N(CC)CC)n1)C[Si](C)(C)C [Example 20]	60

Same assay, conditions: weed, PPI application, 300 g/ha

SMILES	Percent inhibition POAAN [%]
C=C(CC(F)(F)S(=O)(=O)c1ncn(C(=O)N(CC)CC)n1)C[Si](C)(C)C [Example 20]	90

Same assay, conditions: weed, PPI application, 900 g/ha

SMILES	Percent inhibition POAAN [%]
C=C(CC(F)(F)S(=O)(=O)c1ncn(C(=O)N(CC)CC)n1)C[Si](C)(C)C [Example 20]	99
